This is an account of results in patent US20150266857A1, “NOVEL 3-INDOL SUBSTITUTED DERIVATIVES, PHARMACEUTICAL COMPOSITIONS AND METHODS FOR USE” (iTeos Therapeutics, priority 2014, published 2015).

pIC50: −log10 of the molar value.

Test [1] addresses T1, human recombinant TDO2 enzyme (Homo sapiens, UniProt P48775).
T1 construct: made in house
Briefly: Assay for TDO2 enzymatic activity determination. The note with it: human recombinant TDO2, L-Trp 1 mM, kynurenine absorbance at 480 nm. The test is classed as biochemical. In outline:
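Recombinant human TDO2 assayed in 50 mM potassium phosphate pH 7.5 with ascorbate, methylene blue and catalase. Reaction started with 1 mM L-Trp, run 1 h at room temperature, stopped with TCA, then heated at 65 °C. Kynurenine measured with Ehrlich's reagent at 480 nm against a standard curve; ten-point concentration series fitted.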

Test [2] addresses T2, murine mastocytoma P815 cells overexpressing hTDO2 (Homo sapiens, UniProt P48775).
T2 construct: expressed in transfected cells; host or cells: murine mastocytoma P815 cells
The test is described as follows: Cellular assay for TDO2 activity, hTDO2-overexpressing P815 cells. The test is classed as cell-based. The conditions noted are these: P815 cells overexpressing hTDO2, overnight incubation, kynurenine in supernatant. The method, then: The assay (adapted from Pilotte L et al., Proc Natl Acad Sci USA, 2012, 109(7), 2497-502) was performed in 96-well flat bottom plates seeded with murine mastocytoma P815 cells overexpressing hTDO2 (prepared as described in Pilotte et al., PNAS, 2012, 109(7), 2497-2502), at a concentration of 5×10^4 cells/well in a final volume of 200 μL. To determine TDO or IDO activity, the cells were incubated overnight at 37° C. at 5% CO2 in IMDM (Invitrogen) supplemented with 2% FBS and 2% penicillin/streptomycin in the presence of the compounds of the present invention, at different concentrations. The cells may be obtained from the American Type Cuylture Collecion [ATCC® TIB-64™ or commercially, e.g., from Sigma-Aldrich or Life Technologies.]
The plates were then centrifuged 5 min at 1000 rpm, and 100 μL of the supernatant were collected in a conical plate, 30 uL of TCA 30% were added and a further centrifugated at 3000×g for 10 minutes. 100 μL of the supernatant were collected in a flat bottomed plate and 100 μL of 2% (w/v) 4-(dimethylamino)-benzaldehyde in acetic acid and incubated for 5 min at room temperature. Kynurenine concentrations were determined by measuring the absorbance at 480 nm. A standard curve was made with pure kynurenine. The TDO activity was measured as described above using ten serial concentrations of the compounds of the present invention. Data were fitted using the Prism™ software (GraphPad Software, Inc.) using standard parameters.

For test [3], the target named is T3, human glioblastoma A172 cells, naturally expressing hTDO2 (Homo sapiens, UniProt P48775).
T3 construct: human glioblastoma A172 cells, naturally expressing hTDO2; endogenous in cells; host or cells: human glioblastoma A172 cells (ATCC CRL-1620)
The test is described as follows: Cellular assay for TDO2 activity, A172 cells. It counts as cell-based. The note with it: overnight incubation, kynurenine in supernatant. In outline:
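A172 human glioblastoma cells naturally expressing TDO2, seeded at 1.25×10^4 cells/well, were incubated overnight at 37 °C in IMDM with 2% FBS and ten serial compound concentrations. Supernatant kynurenine, after TCA precipitation and Ehrlich's reagent, was read at 480 nm against a kynurenine standard curve; data curve-fitted.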

Another test has as its system TDO2. The test is described as follows: Pharmacodynamic assay for TDO2 in vivo activity: increase of blood Tryptophan levels in mice. On the set-up: species or system mouse. The note with it: female BALB/c mice, 2 hours; for increase of circulating Tryptophan compared to vehicle-treated controls: p<0.0001. How it is done:
The compounds of the present invention increase the amount of Tryptophan in mouse blood. Briefly, female BALB/c mice (7-8 weeks old) were treated with either a suspension of one of the compounds of the present invention in 0.5% hydroxypropyl methyl cellulose (HPMC) K4M (4000 mPa·s (cPs), Methocell™, Dow chemical)/0.25% Tween® 20 (Signma Aldrich) at different doses (30, 60 and 100 mg/kg), or with a vehicle control (0.5% HPMC K4M/0.25% Tween 20), by the oral route by gavage (dosing volume 5 mL/kg, 10 mice per group). After two hours, blood was harvested, plasma was prepared and the amount of Tryptophan present was determined by LC-MS-MS (HPLC column Unison UK-Phenyl, 75×4.6, 3 μm, flow rate 0.8 mL/min, 8 minutes gradient from 95% water+0.1% formic acid/5% Acetonitrile+0.1% formic acid to 5% water+0.1% formic acid/95% Acetonitrile+0.1% formic acid, retention time 2.4 min; API4000 MS-MS system from AB Sciex, ESI+ mode, parent ion 205.1, daughter ion 146.1).

One may read the pIC50 as −log10 of the IC50, conventionally taken in molar units.

T3 sequence (P48775 whole entry): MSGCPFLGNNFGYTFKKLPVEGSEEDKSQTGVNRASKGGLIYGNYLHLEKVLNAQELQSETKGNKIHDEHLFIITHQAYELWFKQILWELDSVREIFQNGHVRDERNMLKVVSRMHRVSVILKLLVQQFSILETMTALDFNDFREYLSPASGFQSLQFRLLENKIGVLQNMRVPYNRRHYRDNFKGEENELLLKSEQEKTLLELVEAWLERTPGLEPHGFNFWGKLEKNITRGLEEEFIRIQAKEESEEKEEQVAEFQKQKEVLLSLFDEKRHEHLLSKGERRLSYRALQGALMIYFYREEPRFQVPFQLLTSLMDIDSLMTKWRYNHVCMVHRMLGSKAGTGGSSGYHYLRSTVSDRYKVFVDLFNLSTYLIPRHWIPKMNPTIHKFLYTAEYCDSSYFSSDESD
T2 sequence (P48775 whole entry): as above
T1 sequence (P48775 whole entry): as above

On to `Fc1ccc2c(-c3ccc4cn[nH]c4c3)c[nH]c2c1` [Compound 1, 6-(6-fluoro-1H-indol-3-yl)-1H-indazole], for which the negative logarithm of the IC50 (pIC50) in test [1] is 6.23; in test [2], 6.81; in test [3], 6.75.
Take `Cc1nc2cc(-c3c[nH]c4cc(F)ccc34)ccc2[nH]1` [Compound 26, 5-(6-fluoro-1H-indol-3-yl)-2-methyl-1H-benzo[d]imidazole]: the values for the pIC50 in test [1] and in test [2] were 6.41 and 6.82, respectively.
Turning to `CS(=O)(=O)CCc1nc2cc(-c3c[nH]c4cc(F)ccc34)ccc2[nH]1` [Compound 38, 5-(6-fluoro-1H-indol-3-yl)-2-(2-(methylsulfonyl)ethyl)-1H-benzo[d]imidazole], the pIC50 in test [2] is 6.30; in test [3] it was 6.29.
In the same order, the values of `Fc1ccc2c(-c3ccc4ocnc4c3)c[nH]c2c1` [Compound 47, 5-(6-fluoro-1H-indol-3-yl)benzo[d]oxazole] are 7.00 and 6.32.
`NC(=O)Cc1nc2ccc(-c3c[nH]c4cc(F)ccc34)cc2[nH]1` [Compound 60, 2-(6-(6-fluoro-1H-indol-3-yl)-1H-benzo[d]imidazol-2-yl)acetamide] showed a pIC50 in test [2] of 6.20.
On to `CN1CCN(Cc2nc3cc(-c4c[nH]c5cc(F)ccc45)ccc3o2)CC1` [Compound 62, 5-(6-fluoro-1H-indol-3-yl)-2-((4-methylpiperazin-1-yl)methyl)benzo[d]oxazole], for which the pIC50 in test [2] was 6.68; in test [3], 6.47.
In the case of `NC(=O)Cn1c(=O)oc2cc(-c3c[nH]c4cc(F)ccc34)ccc21` [Compound 64, 2-(6-(6-fluoro-1H-indol-3-yl)-2-oxobenzo[d]oxazol-3(2H)-yl)acetamide], the pIC50 is 6.75 in test [2] and 6.30 in test [3].
In the same order, the values of `O=c1[nH]c2ccc(-c3c[nH]c4cc(F)ccc34)cc2[nH]1` [Compound 65, 5-(6-fluoro-1H-indol-3-yl)-1H-benzo[d]imidazol-2(3H)-one] are 6.96 and 6.47.
Turning to `Fc1ccc2c(-c3ccc4nc(CN5CCOCC5)oc4c3)c[nH]c2c1` [Compound 66, 6-(6-fluoro-1H-indol-3-yl)-2-(morpholinomethyl)benzo[d]oxazole], the pIC50 in test [2] was 6.69; in test [3], 6.55.
Take `CN1CCN(Cc2nc3ccc(-c4c[nH]c5cc(F)ccc45)cc3o2)CC1` [Compound 68, 6-(6-fluoro-1H-indol-3-yl)-2-((4-methylpiperazin-1-yl)methyl)benzo[d]oxazole]: the pIC50 was 7.11 in test [2] and 6.66 in test [3].
For `CS(=O)(=O)NCc1nc2cc(-c3c[nH]c4cc(F)ccc34)ccc2o1` [Compound 70, N-((5-(6-fluoro-1H-indol-3-yl)benzo[d]oxazol-2-yl)methyl)methanesulfonamide], the pIC50 in test [2] was 6.60; in test [3], 6.36.
With `CS(=O)(=O)NCc1nc2ccc(-c3c[nH]c4cc(F)ccc34)cc2o1` [Compound 74, N-((6-(6-fluoro-1H-indol-3-yl)benzo[d]oxazol-2-yl)methyl)methanesulfonamide], the figures for the pIC50 in test [2] and in test [3] were 7.14 and 6.82, respectively.
For `CC(=O)NCc1nc2ccc(-c3c[nH]c4cc(F)ccc34)cc2o1` [Compound 75, N-((6-(6-fluoro-1H-indol-3-yl)benzo[d]oxazol-2-yl)methyl)acetamide], in that order: 7.04 and 6.84.
In the same order, the values of `Fc1ccc2c(-c3ccc4nn(CC5CCNCC5)cc4c3)c[nH]c2c1` [Compound 77, 5-(6-fluoro-1H-indol-3-yl)-2-(piperidin-4-ylmethyl)-2H-indazole] are 6.61 and 6.58.
For `Fc1ccc2c(-c3ccc4nc(CN5CCNCC5)oc4c3)c[nH]c2c1` [Compound 78, 6-(6-fluoro-1H-indol-3-yl)-2-(piperazin-1-ylmethyl)benzo[d]oxazole], in that order: 7.09 and 6.83.
Turning to `Fc1ccc2c(-c3ccc4nc(CCN5CCNCC5)oc4c3)c[nH]c2c1` [Compound 110, 6-(6-fluoro-1H-indol-3-yl)-2-(2-(piperazin-1-yl)ethyl)benzo[d]oxazole], the pIC50 is 5.79 in test [1] and 6.62 in test [3]. Further, the “Tryptophan concentration in plasma (average ± standard error of the mean)” value with TDO2 (30 mg/kg oral gavage) stood at 125 ± 7 µM; in the test on TDO2 (60 mg/kg oral gavage), 130.3 µM; with TDO2 (100 mg/kg oral gavage), 153.2 µM. In addition, the “increase of circulating Tryptophan compared to vehicle-treated controls” value turned out to be 46% in the test on TDO2 (30 mg/kg oral gavage), 52% with TDO2 (60 mg/kg oral gavage) and 78% with TDO2 (100 mg/kg oral gavage).
